Assay results taken from the supplement of paper PMC13380429.

Columns and labels:
Conditions in all cases: 72 h
Vero E6 [1] = assay: drug sensitivity score (DSS) for viability; higher = more toxic; extreme values may be limits of the assay
HepG2 [2] = assay: as above
Caco-2 [3] = assay: as above
Vero E6 [4] = assay: relative viability EC50 (midpoint between 100% and the lowest measured viability); higher = less toxic
Caco-2 [5] = assay: as above
Vero E6 [6] = assay: cell viability relative to DMSO; higher = less toxic
HepG2 [7] = assay: as above
Caco-2 [8] = assay: as above
Calu-3 [9] = assay: drug sensitivity score (DSS) for viability; higher = more toxic; extreme values may be limits of the assay
U2OS [10] = assay: as above
HepG2 [11] = assay: relative viability EC50 (midpoint between 100% and the lowest measured viability); higher = less toxic
U2OS [12] = assay: as above
Calu-3 [13] = assay: cell viability relative to DMSO; higher = less toxic
U2OS [14] = assay: as above
Calu-3 [15] = assay: relative viability EC50 (midpoint between 100% and the lowest measured viability); higher = less toxic

Row | Compound | drug sensitivity score (Vero E6 [1]) | drug sensitivity score (HepG2 [2]) | drug sensitivity score (Caco-2 [3]) | relative viability EC50 (Vero E6 [4]) | relative viability EC50 (Caco-2 [5]) | cell viability (Vero E6 [6]; 1 nM) | cell viability (Vero E6 [6]; 10 nM) | cell viability (Vero E6 [6]; 100 nM) | cell viability (Vero E6 [6]; 1000 nM) | cell viability (Vero E6 [6]; 10000 nM) | cell viability (HepG2 [7]; 1 nM) | cell viability (HepG2 [7]; 10 nM) | cell viability (HepG2 [7]; 100 nM) | cell viability (HepG2 [7]; 1000 nM) | cell viability (HepG2 [7]; 10000 nM) | cell viability (Caco-2 [8]; 1 nM) | cell viability (Caco-2 [8]; 10 nM) | cell viability (Caco-2 [8]; 100 nM) | cell viability (Caco-2 [8]; 1000 nM) | cell viability (Caco-2 [8]; 10000 nM) | drug sensitivity score (Calu-3 [9]) | drug sensitivity score (U2OS [10]) | relative viability EC50 (HepG2 [11]) | relative viability EC50 (U2OS [12]) | cell viability (Calu-3 [13]; 1 nM) | cell viability (Calu-3 [13]; 10 nM) | cell viability (Calu-3 [13]; 100 nM) | cell viability (Calu-3 [13]; 1000 nM) | cell viability (Calu-3 [13]; 10000 nM) | cell viability (U2OS [14]; 1 nM) | cell viability (U2OS [14]; 10 nM) | cell viability (U2OS [14]; 100 nM) | cell viability (U2OS [14]; 1000 nM) | cell viability (U2OS [14]; 10000 nM) | relative viability EC50 (Calu-3 [15])
1 | COc1cc2ncnc(Oc3cccc(NC(=O)Nc4cc(C(C)(C)C(F)(F)F)on4)c3)c2cc1OC | 0 | 3 | 0 | > 10 µM | > 10 µM | 100% | 97.1% | 108% | 108% | 88.3% | 114% | 93.9% | 110% | 93.7% | 59.8% | 102% | 94.1% | 97.5% | 93.2% | 93.8% |  |  |  |  |  |  |  |  |  |  |  |  |  |  | 
2 | COc1ccc(C(=O)N2CCCc3cc(C4=NNC(=O)SC4C)ccc32)cc1OC (stereo unspecified) | 3.5 | 0 | 3.2 |  |  | 103% | 100% | 102% | 83.7% | 67.7% | 83.4% | 80.2% | 95.9% | 90.1% | 81.2% | 95.4% | 94.2% | 89.8% | 83.7% | 71.5% | 2.9 | 0 | > 10 µM | > 10 µM | 97.5% | 93.4% | 101% | 87.7% | 70.1% | 96.2% | 104% | 103% | 96.8% | 90.2% | 
3 | COc1cccc(Nc2c(C(N)=O)cnc3c(C)cc(S(=O)(=O)c4cccc(C(=O)N(C)C)c4)cc23)c1 | 0 | 0 |  |  |  |  |  |  |  |  |  |  |  |  |  |  |  |  |  |  |  | 0 |  |  |  |  |  |  |  |  |  |  |  |  | 
4 | N#Cc1cc2c(OCC(O)CN3CCN(C(c4ccccc4)c4ccccc4)CC3)cccc2[nH]1 (stereo unspecified) | 2.5 | 3.2 | 2.5 |  |  | 101% | 103% | 95.5% | 98.9% | 53.5% | 83.5% | 96.1% | 96.8% | 101% | 38.9% | 106% | 92.7% | 112% | 92.9% | 68.3% | 0 | 0 | 3.3 µM | > 10 µM | 105% | 93.4% | 95.2% | 97.8% | 95.7% | 96.3% | 101% | 102% | 100% | 92.5% | > 10 µM
5 | O=C(NC[C@H](O)CO)c1ccncc1Nc1ccc(I)cc1F | 13.5 | 27.2 | 6.9 |  |  | 98.2% | 85.4% | 67.4% | 52% | 52.7% | 102% | 62.9% | 35% | 20.5% | 15.8% | 92.8% | 93.2% | 81.7% | 73% | 61.7% | 14.8 | 5.2 | 0.0178 µM | 2.2 µM | 96.8% | 83.1% | 67.3% | 51% | 31.9% | 94.6% | 94.5% | 91.6% | 91.8% | 29.9% | 0.104 µM
6 | Cc1cc(Nc2nc(N[C@@H](C)c3ccc(F)cc3)c(C#N)cc2F)n[nH]1 [AZ960] | 7.4 | 10.9 | 5.4 | 0.883 µM |  | 99.3% | 99.6% | 100% | 65.9% | 40.9% | 111% | 105% | 96.7% | 43.2% | 33.6% | 112% | 109% | 118% | 77.8% | 51.8% | 5.8 | 7.4 | 0.422 µM | 1.33 µM | 118% | 103% | 96.1% | 83.9% | 38.9% | 104% | 101% | 104% | 76.3% | 27.8% | 1.51 µM
7 | O=C1c2ccccc2-c2c(NCCc3ccccc3)c(=O)[nH]c3cccc1c23 [BRD7389] | 7.7 | 10.1 | 5.3 | 1.06 µM |  | 102% | 102% | 101% | 69.1% | 33.5% | 98.8% | 101% | 99% | 45.7% | 34.8% | 103% | 102% | 97.3% | 71.6% | 61.9% | 2.8 | 6.7 | 0.525 µM | 0.795 µM | 97.4% | 100% | 97.6% | 83.1% | 72.5% | 97.2% | 102% | 95.5% | 68.5% | 44.5% | 
8 | CNC(=O)[C@H]1O[C@@H](n2cnc3c(NCc4cccc(I)c4)nc(Cl)nc32)[C@H](O)[C@@H]1O [CF102] | 0 | 0 |  | > 10 µM |  | 110% | 99.5% | 104% | 98.3% | 102% | 100% | 102% | 108% | 106% | 99.3% |  |  |  |  |  | 0 |  | > 10 µM |  | 99.1% | 116% | 93.2% | 102% | 98.3% |  |  |  |  |  | > 10 µM
9 | COc1cc(/C=C2\CCCN([C@@H](C)c3ccc(F)cc3)C2=O)ccc1-n1cnc(C)c1 [E-2012] | 0 | 2.1 | 1.3 | > 10 µM |  | 93.1% | 104% | 98.7% | 98.8% | 106% | 109% | 97.5% | 100% | 99% | 60.1% | 106% | 101% | 94.9% | 98.8% | 72.6% | 0 | 0 |  | > 10 µM | 102% | 99.2% | 106% | 104% | 114% | 103% | 97.7% | 101% | 104% | 97.4% | > 10 µM
10 | O=C1[C@H](Cc2ccc(O)cc2)N2C(=O)CCN(C(=O)NCc3ccccc3)[C@H]2CN1Cc1cccc2ccccc12 [ICG-001] | 0 | 2.7 | 2.7 | > 10 µM |  | 90% | 99.2% | 91.3% | 97.2% | 106% | 102% | 105% | 110% | 105% | 43.5% | 91.5% | 94.2% | 99.7% | 91% | 68.8% | 2.4 |  | 3.6 µM |  | 97.4% | 106% | 97.1% | 100% | 53.1% |  |  |  |  |  | 
11 | Cc1sc2c(c1C)C(c1ccc(Cl)cc1)=N[C@@H](CC(=O)OC(C)(C)C)c1nnc(C)n1-2 [JQ1-(+)] | 17.3 | 10 |  |  |  |  |  |  |  |  |  |  |  |  |  |  |  |  |  |  | 6 | 9.2 |  |  |  |  |  |  |  |  |  |  |  |  | 
12 | Cc1csc2c(N[C@@H](C)CN3CCN(S(=O)(=O)c4ccc(Cl)c(Cl)c4)CC3)ncnc12 [LPA2-antagonist-1] | 1.1 | 12.8 | 3.7 | > 10 µM |  | 95.2% | 97.1% | 102% | 93.2% | 82.5% | 106% | 97.9% | 93.2% | 36.6% | 18.6% | 96.3% | 107% | 95.3% | 80.9% | 64.4% | 0 | 2.5 | 0.451 µM |  | 90.5% | 104% | 96.9% | 103% | 93.6% | 97.6% | 101% | 97.4% | 97% | 58.7% | > 10 µM
13 | COc1ccc(CNC(=O)c2cc(-c3cncc(C)c3)ncc2-c2nccs2)nc1OC [MK-3697] | 0 | 0 |  | > 10 µM |  | 103% | 104% | 109% | 111% | 92.7% | 99.8% | 91.2% | 94.9% | 98.5% | 105% |  |  |  |  |  | 0 | 0 | > 10 µM | > 10 µM | 89% | 101% | 83.4% | 92.5% | 99.9% | 97.4% | 103% | 94.7% | 99.3% | 99.1% | > 10 µM
14 | O=C(O)[C@]1(Cc2cccc(Nc3nccs3)n2)CC[C@@H](Oc2cccc(Cl)c2F)CC1 [MK-5108] | 1.3 | 7.8 | 4.6 | > 10 µM |  | 97.3% | 100% | 100% | 94.6% | 79.5% | 111% | 106% | 99.3% | 62.2% | 40.2% | 95.6% | 100% | 90.2% | 76.2% | 70.7% | 2.4 | 1.8 | 0.787 µM |  | 98.6% | 90.3% | 89.1% | 88% | 76.8% | 97.9% | 100% | 94.5% | 95.1% | 73.3% | > 10 µM
15 | O=C(Nc1ccc(OC(F)(F)F)cc1)c1sccc1NCc1ccnc2ccccc12 [OSI-930] |  | 2.5 | 1.7 |  |  |  |  |  |  |  | 103% | 98.5% | 91.3% | 89% | 67% | 107% | 102% | 94.1% | 97.9% | 69.3% | 0.4 | 0 |  | > 10 µM | 91.6% | 111% | 93.6% | 112% | 78% | 97.8% | 101% | 99.8% | 104% | 92.2% | > 10 µM
16 | CC(C)=CCC/C(C)=C/CNCCNC1C2CC3CC(C2)CC1C3 (stereo unspecified) [SQ-109] | 0 | 0.1 | 2.4 | > 10 µM |  | 103% | 95.8% | 105% | 102% | 88.8% | 94.3% | 103% | 110% | 103% | 86.3% | 92.5% | 107% | 81.7% | 90.6% | 74.2% | 0 | 0 | > 10 µM | > 10 µM | 94.2% | 111% | 106% | 106% | 94% | 102% | 104% | 99.5% | 103% | 93.6% | > 10 µM
